Converted amounts (≈) assume the structure as drawn. Read-outs that look alike come from different tables or passages of the source.
How the values were obtained:
[1] = test system: Ctenocephalides felis; test: Action against fleas (infested dogs, oral); format: in vivo, Ctenocephalides felis (on dogs); settings: 50 mg kg-1 day-1, dogs
Procedure: Dogs having the proven ability to support a flea population permanently are infested with 100 cat fleas Ctenocephalides felis Bouche. The infested dogs are then divided into 3 groups of 2 animals. […] The test compound is administered in the form of an aqueous suspension (by means of a syringe). The third group of animals is not treated and serves as a control group.
After 3, 8 and 10 days, the eggs of the fleas are collected from the paper which is under the dog cages. The eggs are counted, placed on a medium suitable for the culture of larvae and incubated. A count is made of the resulting pupae and fully grown fleas.

[2] = test system: Lucilia sericata and L. cuprina; test: Action against blowflies; format: in vivo; settings: 6.4 ppm, after at the most 96 h
Procedure: Freshly deposited eggs of the blowfly species Lucilia sericata and L. cuprina are placed in small portions (30 to 50 eggs) into each of a number of test tubes in which 4 ml of nutrient medium have been mixed with 1 ml of test solution at the intermediate dilution of the active ingredient necessary to obtain the final concentration. After inoculating the culture medium, the test tubes are sealed with cotton wool plugs and are then incubated in an incubator at 30° C. for 4 days. In the untreated medium, larvae about 1 cm in length (stage 3) have developed by the end of this 4-day period. When a compound is active the larvae are by the end of this period either dead or distinctly retarded. Four tests are carried out simultaneously with concentrations of 100, 40, 16 and 6.4 ppm, respectively. The activity is measured according to the lowest concentration that is still fully active (LC 100).

[3] = Physico-chemical characteristics: solubilities; format: physicochemical
[4] = Bio-availability: blood plasma level after injection of calves; format: in vivo
Procedure: As a measure of bio-availability, the blood plasma level of the compounds is determined on several days after the injection of calves with, in each case, 1 mg of compound/kg body weight.

[5] = hexane, organic solvent or mixture, read-out: solubility in hexane
[6] = water, read-out: solubility in water

In the case of `Nc1ccc(F)c(C(=O)NC(=O)Nc2ccc(F)c(Oc3ncc(C(F)(F)F)cc3Cl)c2)c1F` [Compound 1.6, N-[3-(3-chloro-5-trifluoromethylpyridyl-2-oxy)-4-fluorophenyl]-N'-[2,6-difluoro-3-aminobenzoyl]-urea], the activity [1] is reported as “more than 50%”.
For `Nc1ccc(F)c(C(=O)NC(=O)Nc2ccc(Cl)c(Oc3ncc(C(F)(F)C(F)(Cl)Cl)cc3Cl)c2)c1F` [Compound 1.9], the “mortality of the larvae” value [2] was 100%.
In the case of `Nc1ccc(F)c(C(=O)NC(=O)Nc2ccc(Cl)c(Oc3ncc(C(F)(F)F)cc3Cl)c2)c1F` [Compound 1.1, N-[3-(3-chloro-5-trifluoromethylpyridyl-2-oxy)-4-chlorophenyl]-N'-[2,6-difluoro-3-aminobenzoyl]-urea], the activity [1] is reported as “more than 50%”, the solubility [3, 5] is reported as roughly 60 µg/mL (≈ 115 µM) and the solubility in isopropanol [3] is reported as 0.30%. For the same compound, the solubility in n-octanol [3] was 0.56%, the solubility [3, 6] was 0.11 µg/mL (≈ 0.211 µM) and the concentration at 24 h ([4]; bovine, plasma, 1 mg/kg, day 1, calf 3, 1 mg/kg injection) was 126 ng/mL. It also gave a concentration at 24 h ([4]; bovine, plasma, 1 mg/kg, day 1, calf 4, 1 mg/kg injection) of 185 ng/mL, a concentration at 168 h ([4]; bovine, plasma, 1 mg/kg, day 7, calf 3, 1 mg/kg injection) of 48 ng/mL and a concentration at 168 h ([4]; bovine, plasma, 1 mg/kg, day 7, calf 4, 1 mg/kg injection) of 66 ng/mL. The concentration at 336 h ([4]; bovine, plasma, 1 mg/kg, day 14, calf 3, 1 mg/kg injection) was 16 ng/mL, the concentration at 336 h ([4]; bovine, plasma, 1 mg/kg, day 14, calf 4, 1 mg/kg injection) was 27 ng/mL and the concentration at 504 h ([4]; bovine, plasma, 1 mg/kg, day 21, calf 3, 1 mg/kg injection) was 10 ng/mL. For the same compound, the concentration at 504 h ([4]; bovine, plasma, 1 mg/kg, day 21, calf 4, 1 mg/kg injection) was 12 ng/mL, the concentration at 672 h ([4]; bovine, plasma, 1 mg/kg, day 28, calf 3, 1 mg/kg injection) was 5 ng/mL and the concentration at 672 h ([4]; bovine, plasma, 1 mg/kg, day 28, calf 4, 1 mg/kg injection) was 6 ng/mL. For the same compound, the concentration at 840 h ([4]; bovine, plasma, 1 mg/kg, day 35, calf 3, 1 mg/kg injection) was 2 ng/mL, the concentration at 840 h ([4]; bovine, plasma, 1 mg/kg, day 35, calf 4, 1 mg/kg injection) was 4 ng/mL and the “bio-availability compared with (A)” value ([4]; calves, injection, 1 mg/kg) was “distinctly better bio-availability than does compound (A)”. The “excretion compared with (A)” value ([4]; calves, injection, 1 mg/kg) was “excreted considerably more rapidly than (A)”, the “reaching of high concentration in the blood plasma” value ([4]; calves, injection, 1 mg/kg) was “a high concentration in the blood plasma is reached very rapidly” and the Blood plasma level ([4]; day 42, calf 3, 1 mg/kg injection) was 0 ppb. For the same compound, the Blood plasma level ([4]; day 42, calf 4, 1 mg/kg injection) was 0 ppb, the Blood plasma level ([4]; day 49, calf 3, 1 mg/kg injection) was 0 ppb and the Blood plasma level ([4]; day 49, calf 4, 1 mg/kg injection) was 0 ppb. It also gave a Blood plasma level ([4]; day 56, calf 3, 1 mg/kg injection) of 0 ppb, a Blood plasma level ([4]; day 56, calf 4, 1 mg/kg injection) of 0 ppb and a Blood plasma level ([4]; day 63, calf 4, 1 mg/kg injection) of 0 ppb. The Blood plasma level ([4]; day 70, calf 4, 1 mg/kg injection) was 0 ppb, the Blood plasma level ([4]; day 77, calf 4, 1 mg/kg injection) was 0 ppb and the Blood plasma level ([4]; day 84, calf 4, 1 mg/kg injection) was 0 ppb. The “blood plasma values compared with (A)” value ([4]; very rapidly after administration, calves, 1 mg/kg) was “higher blood plasma values”.
With `Nc1ccc(F)c(C(=O)NC(=O)Nc2cccc(Sc3ncc(C(F)(F)F)cc3Cl)c2)c1F` [Compound 1.12] the activity [1] was “more than 50%”.
`O=C(NC(=O)c1c(F)cccc1F)Nc1ccc(Cl)c(Oc2ncc(C(F)(F)F)cc2Cl)c1` [(A)] showed a solubility [3, 5] of 3 µg/mL (≈ 5.93 µM), a solubility in isopropanol [3] of 0.09% and a solubility in n-octanol [3] of 0.065%. For the same compound, the solubility [3, 6] was 0.02 µg/mL (≈ 0.0395 µM), the concentration at 24 h ([4]; bovine, plasma, 1 mg/kg, day 1, calf 1, 1 mg/kg injection) was 7 ng/mL and the concentration at 24 h ([4]; bovine, plasma, 1 mg/kg, day 1, calf 2, 1 mg/kg injection) was 5 ng/mL. For the same compound, the concentration at 168 h ([4]; bovine, plasma, 1 mg/kg, day 7, calf 1, 1 mg/kg injection) was 3 ng/mL, the concentration at 168 h ([4]; bovine, plasma, 1 mg/kg, day 7, calf 2, 1 mg/kg injection) was 4 ng/mL and the concentration at 336 h ([4]; bovine, plasma, 1 mg/kg, day 14, calf 1, 1 mg/kg injection) was 4 ng/mL. For the same compound, the concentration at 336 h ([4]; bovine, plasma, 1 mg/kg, day 14, calf 2, 1 mg/kg injection) was 9 ng/mL, the concentration at 504 h ([4]; bovine, plasma, 1 mg/kg, day 21, calf 1, 1 mg/kg injection) was 7 ng/mL and the concentration at 504 h ([4]; bovine, plasma, 1 mg/kg, day 21, calf 2, 1 mg/kg injection) was 10 ng/mL. For the same compound, the concentration at 672 h ([4]; bovine, plasma, 1 mg/kg, day 28, calf 1, 1 mg/kg injection) was 6 ng/mL, the concentration at 672 h ([4]; bovine, plasma, 1 mg/kg, day 28, calf 2, 1 mg/kg injection) was 5 ng/mL and the concentration at 840 h ([4]; bovine, plasma, 1 mg/kg, day 35, calf 1, 1 mg/kg injection) was 6 ng/mL. For the same compound, the concentration at 840 h ([4]; bovine, plasma, 1 mg/kg, day 35, calf 2, 1 mg/kg injection) was 10 ng/mL, the concentration at 1008 h ([4]; bovine, plasma, 1 mg/kg, day 42, calf 1, 1 mg/kg injection) was 9 ng/mL and the concentration at 1008 h ([4]; bovine, plasma, 1 mg/kg, day 42, calf 2, 1 mg/kg injection) was 6 ng/mL. It also gave a concentration at 1176 h ([4]; bovine, plasma, 1 mg/kg, day 49, calf 1, 1 mg/kg injection) of 4 ng/mL, a concentration at 1176 h ([4]; bovine, plasma, 1 mg/kg, day 49, calf 2, 1 mg/kg injection) of 4 ng/mL and a concentration at 1344 h ([4]; bovine, plasma, 1 mg/kg, day 56, calf 1, 1 mg/kg injection) of 5 ng/mL. It also gave a concentration at 1344 h ([4]; bovine, plasma, 1 mg/kg, day 56, calf 2, 1 mg/kg injection) of 5 ng/mL, a concentration at 1512 h ([4]; bovine, plasma, 1 mg/kg, day 63, calf 1, 1 mg/kg injection) of 4 ng/mL and a concentration at 1512 h ([4]; bovine, plasma, 1 mg/kg, day 63, calf 2, 1 mg/kg injection) of 6 ng/mL. The concentration at 1680 h ([4]; bovine, plasma, 1 mg/kg, day 70, calf 1, 1 mg/kg injection) was 7 ng/mL, the concentration at 1680 h ([4]; bovine, plasma, 1 mg/kg, day 70, calf 2, 1 mg/kg injection) was 5 ng/mL and the concentration at 1848 h ([4]; bovine, plasma, 1 mg/kg, day 77, calf 1, 1 mg/kg injection) was 5 ng/mL. For the same compound, the concentration at 1848 h ([4]; bovine, plasma, 1 mg/kg, day 77, calf 2, 1 mg/kg injection) was 2 ng/mL, the concentration at 2016 h ([4]; bovine, plasma, 1 mg/kg, day 84, calf 1, 1 mg/kg injection) was 7 ng/mL and the concentration at 2016 h ([4]; bovine, plasma, 1 mg/kg, day 84, calf 2, 1 mg/kg injection) was 7 ng/mL. For the same compound, the Cmax ([4]; bovine, plasma, calves, injection, 1 mg/kg, read-out: maximum concentration in the blood (plasma)) was 7 to 10 ng/mL and the “persistence of blood plasma level” value ([4]; level of 7 to 10 ppb, calves, 1 mg/kg) was “maintained over a relatively long period”.
